Measurements as given in patent US11912668B2, “GCN2 and perk kinase inhibitors and methods of use thereof” (Deciphera Pharmaceuticals, LLC, priority 2020, dated 2024).

Legend:
GCN2 kinase = GCN2 kinase (Homo sapiens (Human), UniProt Q9P2K8); assay: Biochemical assay for GCN2 (TR-FRET kinase activity assay); settings: 1 mM ATP, 3-hour incubation
Procedure, shortened: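 TR-FRET assay with 2 nM GCN2, 130 nM GFP-eIF2α substrate, 0.2 mg/mL E. coli tRNA and 1 mM ATP; compounds (0.5% DMSO) reacted 3 h. Stopped with 20 mM EDTA plus 2 nM Tb-anti-peIF2α (pSer52), 60 min RT; 520/490 ratio converted to % inhibition, IC50 from four-parameter fit.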

CCRF-CEM leukemia cells = assay: CCRF-CEM ASNase cell proliferation assay, phenotypic assay for cellular inhibition of GCN2; assay type: cell-based; settings: Homo sapiens; ASNase treated CCRF-CEM cells, 1 mU/mL ASNase, 72 h
Procedure, shortened: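 Cells were seeded at ten thousand per well in RPMI-1640 with 10% heat-inactivated FBS and treated in triplicate with serially diluted compound plus 1 mU/mL ASNase for 72 h at 37 °C, 5% CO2. Resazurin was then added for 6 h, with fluorescence read at ex 540/em 600 nm to derive IC50 values.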

[1] = tested on: ATF4 in HCT116 colorectal cancer cells; assay: HCT116 amino acid starved (-AA) ATF4 assay (Western blot); assay type: cell-based; settings: Homo sapiens, HCT-116, 4 h
Description: (§1) HCT116 colorectal cancer cells (catalog #CCL-247) were obtained from the American Type Culture Collect (ATTC, Manassas, VA). Briefly, cells were grown in RPMI 1640 supplemented with 10% heat inactivated fetal bovine serum (Invitrogen, Carlsbad, CA) and 1% Penicillin/Streptomycin/L-Glutamine at 37° C., 5% CO2, and 95% humidity. Cells were expanded until reaching 70-95% confluency at which point they were subcultured or harvested for assay use. Cells were seeded in 12-well culture plate at five hundred thousand cells per well in 1 mL complete growth medium and incubated overnight at 37° C., 5% CO2, and 95% humidity. The next day each well was replaced with 1 mL Earle's Balanced Salt Solution (EBSS, Invitrogen, Carlsbad, CA) supplemented with 10% Dialyzed Fetal Bovine Serum, 5.5 mM Glucose, 1% Penicillin/Streptomycin and 1% Vitamin solution (thermo #11120052). A serial dilution of test compound was dispensed into well. Plates were incubated for 4 h at 37° C., 5% CO2, and 95% humidity. At the end of the incubation, cells were washed with PBS supplemented with 1× Halt protease inhibitor, 1× Halt phosphatase inhibitor, 1× Sigma phosphatase inhibitor cocktail 2 and 1×EDTA and then lysed with M-PER Mammalian Protein Extraction Reagent supplemented with 3× of the inhibitor mix as described above. Cell lysates were sonicated with water bath sonicator (Qsonica, Newtown, CT) and supernatants were boiled with SDS buffer and reducing agent. Western blot was performed on each lysate to quantify phospho-GCN2 (Thr899), total GCN2, ATF4 and beta-Actin. Membranes were imaged with LI-COR Odyssey CLx Imaging System (LI-COR, Lincoln, NE). Data were analyzed using GraphPad Prism software (GraphPad, San Diego, CA) to calculate IC50 values.

PERK kinase = PERK kinase (Homo sapiens (Human), UniProt Q9NZJ5); assay: Biochemical assay for PERK (coupled pyruvate kinase/lactate dehydrogenase assay); settings: 1 mM ATP, rate from 2-3 h time frame
Procedure, shortened: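 Coupled pyruvate kinase/lactate dehydrogenase readout of ATP hydrolysis via NADH oxidation (A340), 10 nM PERK, 0.25 mg/mL myelin basic protein, 1 mM ATP, pH 7.5 Tris/MgCl2 buffer, 1% DMSO. Absorbance followed 6 h at 30° C; rate from the 2-3 h window, normalised to no-compound and known-inhibitor controls, IC50 fitted.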

[2] = tested on: ATF4 in CCRF-CEM leukemia cells (PERK); assay: CCRF-CEM TG ATF4 ELISA, phenotypic assay for cellular inhibition of PERK preactivated by thapsigargin; assay type: cell-based; settings: Homo sapiens; Thapsigargin (1 μM) stimulated CCRF-CEM cells
[3] = tested on: phospho-GCN2 (Thr899) in HCT116 colorectal cancer cells; assay: HCT116 amino acid starved (-AA) phospho-GCN2 assay (Western blot); assay type: cell-based; settings: Homo sapiens, HCT-116, 4 h, read-out: HCT116-AA pGCN2 Western Blot
Description: as §1

Sequence of GCN2 kinase (Q9P2K8 whole entry): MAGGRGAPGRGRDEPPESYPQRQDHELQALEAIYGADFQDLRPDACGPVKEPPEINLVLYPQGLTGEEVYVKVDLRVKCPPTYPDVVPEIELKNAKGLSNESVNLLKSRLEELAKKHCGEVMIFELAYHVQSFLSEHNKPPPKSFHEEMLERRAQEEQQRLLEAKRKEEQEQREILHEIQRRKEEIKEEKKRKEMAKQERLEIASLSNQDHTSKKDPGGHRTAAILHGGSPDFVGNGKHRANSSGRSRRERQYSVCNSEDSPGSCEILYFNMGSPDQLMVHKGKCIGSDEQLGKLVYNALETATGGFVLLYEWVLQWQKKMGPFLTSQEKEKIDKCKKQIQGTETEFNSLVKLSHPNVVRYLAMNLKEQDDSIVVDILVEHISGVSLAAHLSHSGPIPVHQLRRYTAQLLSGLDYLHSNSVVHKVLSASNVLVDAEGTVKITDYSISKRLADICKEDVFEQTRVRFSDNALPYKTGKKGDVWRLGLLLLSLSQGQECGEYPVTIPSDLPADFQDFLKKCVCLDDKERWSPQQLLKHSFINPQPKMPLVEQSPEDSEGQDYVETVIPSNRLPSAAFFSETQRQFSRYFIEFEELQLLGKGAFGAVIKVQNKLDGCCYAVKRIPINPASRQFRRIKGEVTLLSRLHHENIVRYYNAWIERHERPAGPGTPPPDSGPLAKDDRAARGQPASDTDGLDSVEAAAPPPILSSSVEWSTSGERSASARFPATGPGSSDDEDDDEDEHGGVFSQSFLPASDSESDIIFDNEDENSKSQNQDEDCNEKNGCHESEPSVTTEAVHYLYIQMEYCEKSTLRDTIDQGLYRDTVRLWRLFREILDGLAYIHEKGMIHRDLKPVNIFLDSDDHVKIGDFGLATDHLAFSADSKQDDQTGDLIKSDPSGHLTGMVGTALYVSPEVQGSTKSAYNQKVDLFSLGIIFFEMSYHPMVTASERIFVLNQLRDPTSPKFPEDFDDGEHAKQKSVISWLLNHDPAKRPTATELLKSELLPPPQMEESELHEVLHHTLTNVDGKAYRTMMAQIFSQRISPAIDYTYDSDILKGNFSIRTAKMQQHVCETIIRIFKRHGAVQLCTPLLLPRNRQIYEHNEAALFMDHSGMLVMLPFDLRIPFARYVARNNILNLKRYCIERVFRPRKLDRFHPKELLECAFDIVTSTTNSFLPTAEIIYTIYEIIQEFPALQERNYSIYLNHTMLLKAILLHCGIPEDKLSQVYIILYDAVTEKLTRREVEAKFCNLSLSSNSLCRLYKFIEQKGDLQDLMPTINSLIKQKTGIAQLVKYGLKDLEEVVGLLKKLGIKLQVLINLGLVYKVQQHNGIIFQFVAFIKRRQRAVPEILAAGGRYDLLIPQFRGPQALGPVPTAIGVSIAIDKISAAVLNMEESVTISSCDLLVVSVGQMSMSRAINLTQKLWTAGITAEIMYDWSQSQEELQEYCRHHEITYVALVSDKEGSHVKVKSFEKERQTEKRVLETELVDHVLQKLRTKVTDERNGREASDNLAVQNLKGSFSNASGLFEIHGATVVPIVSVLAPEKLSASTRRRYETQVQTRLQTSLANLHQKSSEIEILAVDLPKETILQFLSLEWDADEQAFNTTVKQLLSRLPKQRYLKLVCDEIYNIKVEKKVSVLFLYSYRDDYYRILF
Sequence of PERK kinase (Q9NZJ5 other isoform, or with tags, fused parts or gaps): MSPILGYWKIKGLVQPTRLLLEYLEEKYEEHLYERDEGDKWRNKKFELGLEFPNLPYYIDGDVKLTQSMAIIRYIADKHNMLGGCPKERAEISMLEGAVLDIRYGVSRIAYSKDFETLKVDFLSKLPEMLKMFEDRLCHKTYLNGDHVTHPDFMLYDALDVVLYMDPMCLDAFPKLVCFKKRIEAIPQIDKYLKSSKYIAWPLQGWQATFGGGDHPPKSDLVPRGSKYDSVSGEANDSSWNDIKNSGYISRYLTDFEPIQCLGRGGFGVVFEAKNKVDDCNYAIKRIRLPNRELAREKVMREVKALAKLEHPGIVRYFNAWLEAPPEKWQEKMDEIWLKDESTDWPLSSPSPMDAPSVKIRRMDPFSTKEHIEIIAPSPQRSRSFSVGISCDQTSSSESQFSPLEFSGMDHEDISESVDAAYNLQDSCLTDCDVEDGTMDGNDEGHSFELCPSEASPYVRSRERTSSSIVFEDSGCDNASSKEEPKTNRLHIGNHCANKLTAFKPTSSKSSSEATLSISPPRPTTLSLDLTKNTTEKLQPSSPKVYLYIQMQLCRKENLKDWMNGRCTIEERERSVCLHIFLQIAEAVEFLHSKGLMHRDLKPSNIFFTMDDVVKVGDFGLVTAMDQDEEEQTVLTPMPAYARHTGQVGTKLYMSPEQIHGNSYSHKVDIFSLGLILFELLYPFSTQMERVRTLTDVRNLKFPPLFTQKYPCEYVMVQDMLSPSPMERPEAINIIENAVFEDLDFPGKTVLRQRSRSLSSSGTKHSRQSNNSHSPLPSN

SMILES	IC50 (GCN2 kinase) [nM]	IC50 (CCRF-CEM leukemia cells) [nM]	IC50 [1] [nM]	IC50 (PERK kinase) [nM]	IC50 [2] [nM]	IC50 [3] [nM]
CNc1ncc2cc(-c3cccc(NS(=O)(=O)c4cc(Cl)cnc4OC)c3F)c(N)nc2n1 [Example 61]	≤ 100	≤ 100	≤ 100	≤ 100	100 to 500	≤ 100
CNc1cc2nc(C)c(-c3cc(NS(=O)(=O)c4cc(Cl)cc(CO)c4Cl)c(F)cc3Br)cc2cn1 [Example 14]	≤ 100	1000 to 10000	500 to 1000	100 to 500	1000 to 10000	100 to 500
COc1ncc(Cl)cc1S(=O)(=O)Nc1cccc(-c2cc3cnc(N)cc3nc2C)c1F [Example 77]	≤ 100	≤ 100	≤ 100	≤ 100	100 to 500	≤ 100
CNc1nc2nc(N)ncc2cc1-c1cc(F)cc(NS(=O)(=O)c2cc(Cl)cnc2OC)c1 [Example 96]	≤ 100	100 to 500	100 to 500	100 to 500	1000 to 10000	≤ 100
CNc1ncc2cc(-c3cccc(NS(=O)(=O)c4cc(Cl)cnc4OC)c3F)c(NCCOC)nc2n1 [Example 100]	≤ 100	≤ 100	≤ 100	100 to 500	1000 to 10000	≤ 100
CNc1ncc2cc(-c3cccc(NS(=O)(=O)c4cc(Cl)cnc4OC)c3)c(N)nc2n1 [Example 64]	≤ 100	≤ 100	≤ 100	100 to 500	1000 to 10000	≤ 100
COc1nc2nc(N)ncc2cc1-c1ccnc(NS(=O)(=O)c2cc(Cl)cnc2OC)c1F [Example 135]	≤ 100	500 to 1000	1000 to 10000	100 to 500	1000 to 10000	100 to 500
CNc1cc2nc(C)c(-c3cccc(NS(=O)(=O)c4cc(Cl)cc(CO)c4Cl)c3F)cc2cn1 [Example 45]	≤ 100	≤ 100	≤ 100	≤ 100	100 to 500	≤ 100
CNc1ncc2cc(-c3cc(NS(=O)(=O)c4cc(Cl)cnc4OC)ccc3F)c(NC)nc2n1 [Example 39]	≤ 100	100 to 500	100 to 500	100 to 500	1000 to 10000	≤ 100
COc1ncc(Cl)cc1S(=O)(=O)Nc1cccc(-c2cc3cnc(NC(C)=O)cc3nc2C)c1F [Example 84]	≤ 100	≤ 100	≤ 100	≤ 100	100 to 500	≤ 100
COc1ncc(Cl)cc1S(=O)(=O)Nc1cccc(-c2cnc3nc(Nc4cnn(C)c4)ncc3c2)c1 [Example 59]	≤ 100	≤ 100	≤ 100	100 to 500	1000 to 10000	≤ 100
CNc1ncc2cc(-c3cccc(NS(=O)(=O)c4cc(Cl)cnc4OC)c3OC)c(C)nc2n1 [Example 89]	100 to 500	100 to 500	100 to 500	≤ 100	1000 to 10000	≤ 100
COc1ncc(Cl)cc1S(=O)(=O)Nc1cccc(-c2ccc3nc(NC(C)=O)ncc3c2)c1F [Example 35]	≤ 100	≤ 100	≤ 100	100 to 500	1000 to 10000	≤ 100
CNc1ncc2cc(-c3cc(F)cc(NS(=O)(=O)c4cc(Cl)cnc4OC)c3)c(N)nc2n1 [Example 63]	≤ 100	≤ 100	≤ 100	≤ 100	1000 to 10000	≤ 100
COc1ncc(Cl)cc1S(=O)(=O)Nc1cccc(-c2cnc3cc(N)ncc3c2)c1F [Example 85]	≤ 100	≤ 100	≤ 100	≤ 100	1000 to 10000	≤ 100
CNc1cc2nc(OC)c(-c3cccc(NS(=O)(=O)c4cc(Cl)cnc4OC)c3F)cc2cn1 [Example 129]	≤ 100	≤ 100	≤ 100	≤ 100	1000 to 10000	≤ 100
CNc1ncc2cc(-c3cccc(NS(=O)(=O)c4cc(Cl)cnc4OC)c3Cl)ccc2n1 [Example 62]	≤ 100	≤ 100	100 to 500	≤ 100	1000 to 10000	≤ 100
CNc1ncc2cc(-c3cc(NS(=O)(=O)c4cc(Cl)cnc4OC)ccc3C)cnc2n1 [Example 30]	≤ 100	≤ 100	≤ 100	100 to 500	1000 to 10000	≤ 100
CNc1ncc2cc(-c3cccc(NS(=O)(=O)c4cc(Cl)cnc4OC)c3F)ccc2n1 [Example 36]	≤ 100	≤ 100	≤ 100	≤ 100	1000 to 10000	≤ 100
CNc1cc2nc(C)c(-c3cccc(NS(=O)(=O)c4cc(Cl)cnc4NC)c3F)cc2cn1 [Example 78]	≤ 100	≤ 100	≤ 100	≤ 100	500 to 1000	≤ 100
CNc1cc2nc(C)c(-c3cc(NS(=O)(=O)c4cc(Cl)cc(CO)c4Cl)c(F)cc3F)cc2cn1 [Example 22]	≤ 100	≤ 100	≤ 100	≤ 100	1000 to 10000	≤ 100
CNc1ncc2cc(-c3ccnc(NS(=O)(=O)c4cc(Cl)cnc4OC)c3F)c(OC)nc2n1 [Example 136]	≤ 100	100 to 500	100 to 500	100 to 500	1000 to 10000	≤ 100
CNc1cc2nc(C)c(-c3cc(NS(=O)(=O)c4cc(Cl)cnc4OC)cc(F)c3F)cc2cn1 [Example 143]	≤ 100	≤ 100	≤ 100	≤ 100	1000 to 10000	≤ 100
COc1ncc(Cl)cc1S(=O)(=O)Nc1cc(F)cc(-c2cc3cnc(N)nc3nc2N)c1 [Example 92]	≤ 100	≤ 100	≤ 100	≤ 100	1000 to 10000	≤ 100
CNc1cc2nc(C)c(-c3cc(NS(=O)(=O)c4cc(Cl)cnc4OC)ccc3F)cc2cn1 [Example 44]	≤ 100	≤ 100	≤ 100	≤ 100	1000 to 10000	≤ 100
CNc1ncc2cc(-c3cc(NS(=O)(=O)c4cc(Cl)cnc4OC)ccc3F)c(C)nc2n1 [Example 38]	≤ 100	100 to 500	100 to 500	100 to 500	1000 to 10000	≤ 100
